# Source: patent publication US7553821B2, “Methods for selectively modulating survivin apoptosis pathways” (Yale University, priority 2000, dated 2009)
# Experiments:
# HeLa cells = experiment: DNA content by propidium iodide staining and flow cytometry in transfected HeLa cells; type: cell-based; settings: gated GFP-expressing cells, 48 h after transfection
# Experimental: HeLa cells were transfected with GFP-survivin(T34A) in the presence or in the absence of 20 μM of the caspase inhibitor, Z-VAD-fmk. Gated GFP-expressing cells were analyzed 48 h after transfection for DNA content by propidium iodide staining and flow cytometry. The percentages of apoptotic cells with sub-G1 (hypodiploid) […] DNA content are indicated. Apoptotic HeLa cells in GFP-vector transfectants were 8%. Data are representative of one experiment out of at least three independent determinations.
# Transfection experiments. For transient transfection, HeLa cells in C-6 tissue culture plates (Costar, Cambridge, Mass.) at ˜60-70% confluency, were incubated in 1 ml of serum-free OptiMEM medium (Life Technologies, Gaithersburg, Md.) for 20 min, and transfected with 2.5 μg of the various plasmid cDNAs plus 9 μl Lipofectamine (Life Technologies). After a 5 h incubation at 37° C., the mixture was aspirated and substituted with complete growth medium for 48-72 h. To generate stable YUSAC-2 transfectants, a survivin(T34A) cDNA was inserted into the HindIII-SpeI sites of the pTet-splice vector (Dr. D. Schatz, Yale University School of Medicine), downstream of the regulatory sequences of the Tet-resistance operon (TetO). […] Gated GFP-expressing cells were analyzed for DNA content by flow cytometry on a FACSort (Becton Dickinson, San Jose, Calif.) using a Cell Quest software. […]
# [1] = tested on: YUSAC-2 human melanoma cells; experiment: Melanoma tumor formation in CB.17 immunodeficient mice; type: in vivo, CB.17 SCID/beige mice
# Experimental: To determine whether interference with survivin function by regulated expression of survivin antagonists could block melanoma tumor formation in CB.17 immunodeficient mice, mice were monitored for 8 weeks following subcutaneous injection, and tumor measurements taken at 4- and 8-week time points (Table I). It was determined that YUSAC-2 cells consistently form localized tumors in 6 to 8-week-old female CB.17 SCID/beige mice (Taconic Farms, Germantown, N.Y.) approximately 3-4 weeks following subcutaneous injection of 1-3×10^6 cells. Animals were monitored for up to 4 months, and neither mortality nor gross metastasis is associated with increasing tumor size (up to 5000 mm^3) or ulceration. One day prior to injection, mice were shaved on the right flank, and the regular drinking water was replaced with 5% sucrose alone or containing […] tet as described (Shockett et al., 1995). Cells were harvested in log-phase growth, washed twice in PBS, resuspended in PBS (12×10^6 cells per ml) and injected (0.25 ml, 3×10^6 cells) subcutaneously. The drinking water was changed every 2-3 days. Tumor size was determined by the product of two perpendicular diameters and the height above the skin surface.
# Table 1. Summary of tumor formation for all animals. CB.17 mice were injected with cells and tet was added or withheld from the drinking water. […]
substance,measurement,setting,value
"survivin(T34A): dominant-negative, non-phosphorylatable survivin mutant with Thr34→Ala substitution, expressed from transfected cDNA (also HA- or GFP-tagged)",hypodiploid (sub-G1) DNA content,HeLa cells,resulted in the appearance of HeLa cells with hypodiploid (sub-G1) DNA content
same,"Tumor size (mean ± standard deviation, only mice with tumors)","[1]; 8 Weeks, F5.C4 cells s.c., tet absent",278 ± 116 mm^3
same,size and onset of tumors in tet-deprived animals compared to animals given tet,"[1]; F5.C4 cells, two tet-deprived animals with tumors",considerably smaller in size and appeared with a markedly delayed onset
